Laboratory results published in publication PMC10700596 (Nature Communications, 2023).
Several values for one entry are separate records, joined by “and”; a condition that tells them apart may be missing. Identical values can stand only once. Like-named read-outs stand apart in the source and are kept apart here.

Experiment: in vivo
Assay type: in vivo, mice
Settings: mice; for concentration at 5 min / concentration at 15 min / concentration at 30 min / concentration at 60 min / concentration at 120 min / concentration at 240 min / concentration at 360 min / concentration at 480 min / concentration at 1440 min / CSF concentration, Final (individual sample) / Brain concentration, Final (individual sample) / Plasma concentration, Final (individual sample): 10 mg/kg, IP 10 mg/kg

concentration at 5 min (male, CD-1, mouse, CSF, ip, CSF, 5 min, mean of 3, read-out: CSF concentration C (mean)): 9.11 ng/mL | concentration at 15 min (male, CD-1, mouse, CSF, ip, CSF, 15 min, individual animals, read-out: CSF concentration, Final (individual sample)): 1.21 ng/mL | concentration at 15 min (male, CD-1, mouse, CSF, ip, CSF, 15 min, mean of 3, read-out: CSF concentration C (mean)): 1.7 ng/mL | concentration at 30 min (male, CD-1, mouse, CSF, ip, CSF, 30 min, mean of 3, read-out: CSF concentration C (mean)): 3.94 ng/mL | concentration at 60 min (male, CD-1, mouse, CSF, ip, CSF, 60 min, mean of 3, read-out: CSF concentration C (mean)): 0.35 ng/mL | concentration at 120 min (male, CD-1, mouse, CSF, ip, CSF, 120 min, mean of 3, read-out: CSF concentration C (mean)): 1.36 ng/mL | concentration at 240 min (male, CD-1, mouse, CSF, ip, CSF, 240 min, individual animals, read-out: CSF concentration, Final (individual sample)): 0 ng/mL | concentration at 240 min (male, CD-1, mouse, CSF, ip, CSF, 240 min, mean of 3, read-out: CSF concentration C (mean)): 0 ng/mL | concentration at 360 min (male, CD-1, mouse, CSF, ip, CSF, 360 min, individual animals, read-out: CSF concentration, Final (individual sample)): 0 ng/mL | concentration at 360 min (male, CD-1, mouse, CSF, ip, CSF, 360 min, mean of 3, read-out: CSF concentration C (mean)): 0 ng/mL | concentration at 480 min (male, CD-1, mouse, CSF, ip, CSF, 480 min, mean of 3, read-out: CSF concentration C (mean)): 0.4 ng/mL | concentration at 1440 min (male, CD-1, mouse, CSF, ip, CSF, individual animals, read-out: CSF concentration, Final (individual sample)): 0 ng/mL | concentration at 1440 min (male, CD-1, mouse, CSF, ip, CSF, mean of 3, read-out: CSF concentration C (mean)): 0 ng/mL | concentration at 5 min (male, CD-1, mouse, brain, ip, brain, 5 min, individual animals, read-out: Brain concentration, Final (individual sample)): 20.4 ng/g | concentration at 5 min (male, CD-1, mouse, brain, ip, brain, 5 min, mean of 3, read-out: Brain concentration C (mean)): 21.9 ng/g | concentration at 15 min (male, CD-1, mouse, brain, ip, brain, 15 min, mean of 3, read-out: Brain concentration C (mean)): 14.9 ng/g | concentration at 30 min (male, CD-1, mouse, brain, ip, brain, 30 min, individual animals, read-out: Brain concentration, Final (individual sample)): 11.3 ng/g | concentration at 30 min (male, CD-1, mouse, brain, ip, brain, 30 min, mean of 3, read-out: Brain concentration C (mean)): 11.1 ng/g | concentration at 60 min (male, CD-1, mouse, brain, ip, brain, 60 min, mean of 3, read-out: Brain concentration C (mean)): 6.66 ng/g | concentration at 120 min (male, CD-1, mouse, brain, ip, brain, 120 min, individual animals, read-out: Brain concentration, Final (individual sample)): 0 ng/g | concentration at 120 min (male, CD-1, mouse, brain, ip, brain, 120 min, mean of 3, read-out: Brain concentration C (mean)): 0 ng/g | concentration at 240 min (male, CD-1, mouse, brain, ip, brain, 240 min, individual animals, read-out: Brain concentration, Final (individual sample)): 0 ng/g | concentration at 240 min (male, CD-1, mouse, brain, ip, brain, 240 min, mean of 3, read-out: Brain concentration C (mean)): 0 ng/g | concentration at 360 min (male, CD-1, mouse, brain, ip, brain, 360 min, individual animals, read-out: Brain concentration, Final (individual sample)): 0 ng/g | concentration at 360 min (male, CD-1, mouse, brain, ip, brain, 360 min, mean of 3, read-out: Brain concentration C (mean)): 0 ng/g | concentration at 480 min (male, CD-1, mouse, brain, ip, brain, 480 min, individual animals, read-out: Brain concentration, Final (individual sample)): 0 ng/g | concentration at 480 min (male, CD-1, mouse, brain, ip, brain, 480 min, mean of 3, read-out: Brain concentration C (mean)): 0 ng/g | concentration at 1440 min (male, CD-1, mouse, brain, ip, brain, individual animals, read-out: Brain concentration, Final (individual sample)): 0 ng/g | concentration at 1440 min (male, CD-1, mouse, brain, ip, brain, mean of 3, read-out: Brain concentration C (mean)): 0 ng/g | concentration at 5 min (male, CD-1, mouse, plasma, ip, plasma, 5 min, individual animals, read-out: Plasma concentration, Final (individual sample)): 546 ng/mL | concentration at 5 min (male, CD-1, mouse, plasma, ip, plasma, 5 min, mean of 3, read-out: Plasma concentration C (mean)): 609 ng/mL | concentration at 15 min (male, CD-1, mouse, plasma, ip, plasma, 15 min, mean of 3, read-out: Plasma concentration C (mean)): 834 ng/mL | concentration at 30 min (male, CD-1, mouse, plasma, ip, plasma, 30 min, mean of 3, read-out: Plasma concentration C (mean)): 734 ng/mL | concentration at 60 min (male, CD-1, mouse, plasma, ip, plasma, 60 min, mean of 3, read-out: Plasma concentration C (mean)): 393 ng/mL | concentration at 120 min (male, CD-1, mouse, plasma, ip, plasma, 120 min, mean of 3, read-out: Plasma concentration C (mean)): 304 ng/mL | concentration at 240 min (male, CD-1, mouse, plasma, ip, plasma, 240 min, mean of 3, read-out: Plasma concentration C (mean)): 31.1 ng/mL | concentration at 360 min (male, CD-1, mouse, plasma, ip, plasma, 360 min, mean of 3, read-out: Plasma concentration C (mean)): 11.2 ng/mL | concentration at 480 min (male, CD-1, mouse, plasma, ip, plasma, 480 min, individual animals, read-out: Plasma concentration, Final (individual sample)): 0 ng/mL | concentration at 480 min (male, CD-1, mouse, plasma, ip, plasma, 480 min, mean of 3, read-out: Plasma concentration C (mean)): 0 ng/mL | concentration at 1440 min (male, CD-1, mouse, plasma, ip, plasma, individual animals, read-out: Plasma concentration, Final (individual sample)): 0 ng/mL | concentration at 1440 min (male, CD-1, mouse, plasma, ip, plasma, mean of 3, read-out: Plasma concentration C (mean)): 0 ng/mL | Cmax (male, CD-1, mouse, plasma, ip, 10 mg/kg i.p.): 834 ng/mL | AUC (male, CD-1, mouse, plasma, ip, 10 mg/kg i.p., read-out: plasma AUC (converted)): 1340 ng·h/mL | CSF concentration, Final (individual sample) (CSF, 5 min, individual animals): 0 ng/mL and 11.4 ng/mL and 16.0 ng/mL | CSF concentration, Final (individual sample) (CSF, 15 min, individual animals): 2.26 ng/mL and 1.62 ng/mL | CSF concentration, Final (individual sample) (CSF, 30 min, individual animals): 2.31 ng/mL and 1.36 ng/mL and 8.16 ng/mL | CSF concentration, Final (individual sample) (CSF, 60 min, individual animals): 1.05 ng/mL and 0 ng/mL | CSF concentration, Final (individual sample) (CSF, 120 min, individual animals): 4.07 ng/mL and 0 ng/mL | CSF concentration, Final (individual sample) (CSF, 480 min, individual animals): 1.20 ng/mL and 0 ng/mL | Brain concentration, Final (individual sample) (brain, 5 min, individual animals): 29.4 ng/g and 15.9 ng/g | Brain concentration, Final (individual sample) (brain, 15 min, individual animals): 15.1 ng/g and 20.3 ng/g and 9.28 ng/g | Brain concentration, Final (individual sample) (brain, 30 min, individual animals): 9.04 ng/g and 12.8 ng/g | Brain concentration, Final (individual sample) (brain, 60 min, individual animals): 7.24 ng/g and 0 ng/g and 12.8 ng/g | Plasma concentration, Final (individual sample) (plasma, 5 min, individual animals): 525 ng/mL and 757 ng/mL | Plasma concentration, Final (individual sample) (plasma, 15 min, individual animals): 1131 ng/mL and 825 ng/mL and 545 ng/mL | Plasma concentration, Final (individual sample) (plasma, 30 min, individual animals): 543 ng/mL and 519 ng/mL and 1140 ng/mL | Plasma concentration, Final (individual sample) (plasma, 60 min, individual animals): 539 ng/mL and 0 ng/mL and 640 ng/mL | Plasma concentration, Final (individual sample) (plasma, 120 min, individual animals): 446 ng/mL and 153 ng/mL and 313 ng/mL | Plasma concentration, Final (individual sample) (plasma, 240 min, individual animals): 33.6 ng/mL and 42.0 ng/mL and 17.7 ng/mL | Plasma concentration, Final (individual sample) (plasma, 360 min, individual animals): 0 ng/mL and 34 ng/mL
Structure (SMILES): CCc1nc2c(C)nc(C)cc2n1-c1ccc(CCNC(=O)NS(=O)(=O)c2ccc(C)cc2)cc1 [Grapiprant, reference compound]
